Laboratory results: patent US20240084272A1, “CYTOCHROME P450 MONOOXYGENASES AND USES THEREOF” (THE UNIVERSITY OF BRITISH COLUMBIA, priority 2020, published 2024)

Legend:
Type in all cases: cell-based, Camptotheca acuminata
Ca32229/CPT11H = experiment: In vivo yeast biotransformation / substrate scope assay with CPT 11-hydroxylase; conditions: for Conversion rate (%): substrate converted to hydroxylated product, yeast in vivo assay, 1 L culture, calculated based on LCMS analysis; for acceptance as substrate / conversion: substrate scope, Example 4
From the text: (§1) For heterologous expression of Flag-tagged CYP450s in yeast (Saccharomyces cerevisiae), the full-length coding region of each CYP450 candidate was cloned between SpeI and NcoI restriction sites of MCS1 of the dual plasmid pESC-Leu2d with a cytochrome P450 reductase (CPR) in MCS2 (Dang et al 2018, Nature Chemical Biology 14, 760-763; Rot al 2008, BMC biotechnology 8, 83) yielding pESC-Leu2d::CYP/CPR using In-Fusion cloning system (Takara Clontech). The resulted pESC-Leu2d::CYP/CPR was transformed to the protease-deficient yeast strain YPL 154C:Pep4KO, and yeast harbouring pESC-Leu2d::CPR was used as the negative control. To optimize HCPT production, Δerg6 Δtop1 yeast double mutant strain SMY75-1.4A43 was used, which was previously generated to allow better penetration of, and improved resistance to, topoisomerase I inhibitors such as CPT. The conditions for yeast culture, microsome preparation, and immunoblot analysis are further described below.
(§2) For screening in vivo CPT oxidation activities, 10 μM CPT was fed to 100-μL, cultures of YPLC 154C:Pep4KO yeast transformed with the vector for 48 h. The culture volume can be scaled up to 2 L with the camptothecin concentration up to 50 μM to produce sufficient products for structural characterization and/or semi-synthesis of camptothecin derivatives. Standard in vitro assays were performed at 30 C for 1 hour in 100 μL of 100 mM HEPES-NaOH (pH 7.5) containing […] of total microsomal proteins, 50 μM substrate (FIGS. 6) and 250 μM NADPH on a gyratory shaker with agitation (750 rpm). Reactions were stopped by adding 800 μL methanol. The reaction mixture was extracted twice with methanol to precipitate and remove proteins. The supernatant was subjected to LC-MS/MS analysis
(§3) For routine yeast culture, the transgenic yeast strain was inoculated in 2 mL of synthetic complete (SC) medium lacking leucine (SC-Leu) containing 2% (w/v) glucose and cultured overnight at 30 °C and 250 rpm. The culture was subsequently diluted 100-fold to an OD600 of 0.05 in SC-Leu supplemented with 2% (w/v) glucose and cultured for 16 hr. Yeast was then harvested and sub-cultured for 24 hr in YPA medium containing 2% (w/v) galactose to induce the production of recombinant CYP450s. Yeast cells were harvested by centrifugation and lysed for 2 min using a micro-bead beater (VWR) and 500-μm diameter glass beads in TES (0.6 M sorbitol in TE) buffer. The resulting lysate was subsequently centrifuged at 10,000 g for 15 min at 4 C. The supernatant was then transferred to a new tube and centrifuged at 40,000 g for 60 min at 4 C. Finally, the pellet containing microsomes was resuspended with TEG buffer (20% (v/v) glycerol in TE). Expression of Ca32229 and Ca32236 was confirmed by immunoblot analysis of microsomal fractions prepared from S. cerevisiae cultures harbouring the pESC-Leu2d::CPR/Ca32229 and pESC-Leu2d::CPR/Ca32236 vectors using α-FLAG M2 antibodies (ThermoFisher Scientific) detectable with SuperSignal West Pico Chemiluminescent Substrate (ThermoFisher Scientific) to probe epitope-tagged recombinant proteins (FIG. 6).
(§4) Enzyme assays were analyzed by ultra-performance liquid chromatography (UPLC) on a Xevo TQ-S Cronos Triple Quadrupole Mass Spectrometry (Waters). For all studies, chromatography was performed on an XBridge BEH XP (10×2.1 mm, 1.7 μm) column at a flow rate of 0.6 mL.min−1. The column was equilibrated in solvent A (0.1% formic acid) and the following elution conditions were used: 0 min, 5% B (100% acetonitrile); from 0 to 3.5 min, 35% B; from 3.5 min to 3.75 min, 100% B; 3.75 min to 4.75, 100% B; 4.75 to 6 min, 5% B to re-equilibrate the column. Data were analyzed with MassLynx and TargetLynx (Waters).
(§5) A calibration curve using camptothecin from 0-50 nM was made for quantification. Peaks areas of LC-MS chromatograms were calculated using MassLynx and TargetLynx from Waters and normalized. […]

[1] = tested on: camptothecin hydroxylases (CPTHs), Ca32236 (CPT 10-hydroxylase) and Ca32229 (CPT 11-hydroxylase); experiment: In vivo conversion in yeast expressing CPT hydroxylases (enzyme not distinguished); conditions: for acceptance as substrate (substrate specificity, FIG. 9): Ca32236 and Ca32229, different conversion rates; for conversion rate to hydroxylated product, scale-up: 50 μM substrate, after 48-hr inoculation, LCMS
From the text: as §1, §2
A calibration curve using camptothecin from 0-50 nM was made for quantification. Peaks areas of LC-MS chromatograms were calculated using MassLynx and TargetLynx from Waters and normalized. The amount of substrate consumption, product formation, conversion, and total product yield was quantified using corresponding calibration curves.
To generate sufficient amounts of HCPTs (10 and 11HCPT) and 7-ethyl-HCPT (7-ethyl-10 and 11HCPT) for the synthesis of topotecan, irinotecan and other compounds, enzymatic reactions was scaled up. The transgenic yeast strain was inoculated in 2 mL of synthetic complete medium lacking leucine (SC-Leu) containing 2% (w/v) glucose and cultured overnight at 30° C. and 275 rpm. The culture was subsequently diluted to an OD600 of 0.05 in SC-Leu supplemented with 2% (w/v) glucose and cultured for 16 hr. The yeast was then harvested and sub-cultured for 48 hr in YPA medium containing 2% (w/v) galactose, and 10% glycerol to induce the production of recombinant CYP450s. CPT or 7-ethyl-CPT substrate was fed directly into the culture to reach a final concentration of 50 μM as soon as the yeast was switched from SC-Leu to YPA medium. After 48-hr inoculation, a conversion rate of approximately 70% from CPT or 7-ethyl-CPT to its hydroxylated product was obtained and confirmed by LCMS analysis. The supernatant was collected by centrifugation at 4000 rpm, for 5 minutes. HCPT and 7-ethyl-HCPT were extracted out of reaction matrix by liquid-liquid extraction with ethyl acetate and chloroform, respectively. The solvent was removed by using a rotary evaporator to obtain crude HCPT and 7-ethyl-HCPT substrates for chemical synthesis to topotecan and irinotecan. HCPT and 7-ethyl-HCPT were purified by semi-preparative HPLC prior to the synthesis of derivatives.
A key advantage of the cytochrome P450 monooxygenase enzymes lies in the opportunity to functionalize the inert C—H bond and to further diversify the products to obtain valuable CPT-based scaffolds. […] First, the enzymatic conversion of CPT to HCPTs in yeast expressing CPT hydroxylases was optimized. The initial in vivo conversion rate maximized at 10% (FIG. 2), possibly because CPT is insoluble and the native yeast topoisomerase I is sensitive to CPT. […]

Ca32236/CPT10H = experiment: In vivo yeast biotransformation / substrate scope assay with CPT 10-hydroxylase; conditions: for Conversion rate (%): substrate converted to hydroxylated product, yeast in vivo assay, 1 L culture, calculated based on LCMS analysis
From the text: as §1, §2, §3, §4, §5

| Molecule | Conversion rate (%) (Ca32229/CPT11H) | acceptance as substrate (Ca32229/CPT11H) | conversion (Ca32229/CPT11H) [%] | acceptance as substrate (substrate specificity, FIG. 9) [1] | Conversion rate (%) (Ca32236/CPT10H) | conversion rate to hydroxylated product, scale-up [1] | initial in vivo conversion rate ([1]; CPT to HCPTs, before optimization) [%] | conversion in SMY75-1.4A yeast strain ([1]; SMY75-1.4A (Δerg6 Δtop1) yeast strain) | yield (conversion) after growth optimization ([1]; transgenic yeast in YPA medium with 2% galactose and 10% glycerol for 48 hrs) | acceptance as substrate (Ca32236/CPT10H; substrate scope, Example 4) | conversion rate (Ca32236/CPT10H; substrate scope, Example 4) [%] |
| --- | --- | --- | --- | --- | --- | --- | --- | --- | --- | --- | --- |
| CCC1(O)C(=O)OCc2c1cc1n(c2=O)Cc2cc3cc(O)ccc3nc2-1 (stereo not drawn) [10-HydroxyCPT, 10-hydroxycamptothecin] | 11 | accepted | 7 | accepted as substrates |  |  |  |  |  |  |  |
| CC[C@@]1(O)C(=O)OCc2c1cc1n(c2=O)Cc2cc3ccccc3nc2-1 [CPT, camptothecin] | 62 |  |  | accepted as substrates | 67 | approximately 70% | ≤ 10 | up to 67% | up to 40% |  |  |
| CCc1c2c(nc3ccccc13)-c1cc3c(c(=O)n1C2)COC(=O)[C@]3(O)CC [Compound 7-EthylCPT, 7-ethylcamptothecin] | 32 | accepted |  | accepted as substrates | 8 | approximately 70% |  |  |  | accepted |  |
| CC[C@@]1(O)C(=O)OCc2c1cc1n(c2=O)Cc2cc3c(N)cccc3nc2-1 [Compound 9-AminoCPT, 9-amino-camptothecin] | 9 |  | 9 | accepted as substrates | 9 |  |  |  |  |  | 9 |
| CCC1(O)C(=O)OCc2c1cc1n(c2=O)Cc2cc3ccc(O)cc3nc2-1 (stereo not drawn) [Compound 11HCPT, 11-hydroxycamptothecin] |  |  |  |  |  |  |  |  |  | not accepted |  |
| evodiamine |  |  |  | accepted as substrates |  |  |  |  |  |  |  |
